Measurements taken from patent US20230123334A1, “AMINO LIPID COMPOUND, PREPARATION METHOD THEREFOR, AND APPLICATION THEREOF” (SHENZHEN SHENXIN BIOTECHNOLOGY CO., LTD., priority 2020, published 2023).

Assays:
[1] = tested on: HEK293 cells; experiment: Preliminary screening as DNA vectors, GFP transfection of HEK293 cells; type: cell-based; details: HEK293 cells; lipid/DOPE liposome with 75 ng plasmid DNA (psin-EGFP-IRES-Puro); number of cells expressing GFP divided by total number of nuclei (Hoechst)
How it was run: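 Lipid + DOPE liposomes (NaOAc, pH 5.6) complexed w/ 75 ng psin-EGFP-IRES-Puro, 30 min RT; added to 3-5×10^4 HEK293/well, 37° C. Hoechst 0.2 μg/mL at 20-24 h, imaged after further 20-24 h. Efficiency = GFP+ cells / total nuclei.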

[2] = tested on: HEK293 cells; experiment: Preliminary screening as mRNA vectors, EGFP mRNA transfection of HEK293 cells; type: cell-based; details: HEK293 cells, 96-well plates, EGFP mRNA 50 ng per well; percentage of GFP fluorescent cells relative to total number of cells (Hoechst)
How it was run: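 Each well of HEK293 cells received 50 ng of EGFP mRNA. Efficiency was expressed as percent GFP-expressing cells over Hoechst-defined total cell number.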

Compound: CCCCCCCCCCCCNc1nc(NCCCCCCCCC)nc(NCCN(CC)CC)n1 [Compound N9N12D7]
- Absolute DNA transfection efficiency in HEK293 cells [1]: 0.0%
- Absolute mRNA transfection efficiency in HEK293 cells [2]: 0.0%

Compound: CCCCCCCCCCCCNc1nc(NCCCCCCCCC)nc(NCCCN2CCOCC2)n1 [Compound N9N12D8]
- Absolute DNA transfection efficiency in HEK293 cells [1]: 0.0%
- Absolute mRNA transfection efficiency in HEK293 cells [2]: 0.0%

Compound: CCCCCCCCCCCCNc1nc(NCCCCCCCCC)nc(NCCCN2CCN(C)CC2)n1 [Compound N9N12D9]
- Absolute DNA transfection efficiency in HEK293 cells [1]: 0.0%
- Absolute mRNA transfection efficiency in HEK293 cells [2]: 0.1%

Compound: CCCCCCCCCCCCNc1nc(NCCCCCCCCC)nc(NCC2CCN(C)CC2)n1 [Compound N9N12D10]
- Absolute DNA transfection efficiency in HEK293 cells [1]: 0.0%
- Absolute mRNA transfection efficiency in HEK293 cells [2]: 0.4%

Compound: CCCCCCCCCCCCCNc1nc(NCCCCCCCCC)nc(NCCN(C)C)n1 [Compound N9N13D1]
- Absolute DNA transfection efficiency in HEK293 cells [1]: 0.4%
- Absolute mRNA transfection efficiency in HEK293 cells [2]: 2.2%

Compound: CCCCCCCCCCCCCNc1nc(NCCCCCCCCC)nc(NCCN2CCOCC2)n1 [Compound N9N13D2]
- Absolute DNA transfection efficiency in HEK293 cells [1]: 0.0%
- Absolute mRNA transfection efficiency in HEK293 cells [2]: 0.6%

Compound: CCCCCCCCCCCCCNc1nc(NCCCCCCCCC)nc(NCCN2CCCC2)n1 [Compound N9N13D3]
- Absolute DNA transfection efficiency in HEK293 cells [1]: 1.0%
- Absolute mRNA transfection efficiency in HEK293 cells [2]: 4.6%

Compound: CCCCCCCCCCCCCNc1nc(NCCCCCCCCC)nc(NCCN2CCCCC2)n1 [Compound N9N13D4]
- Absolute DNA transfection efficiency in HEK293 cells [1]: 0.0%
- Absolute mRNA transfection efficiency in HEK293 cells [2]: 0.5%

Compound: CCCCCCCCCCCCCNc1nc(NCCCCCCCCC)nc(NCCN2CCN(C)CC2)n1 [Compound N9N13D5]
- Absolute DNA transfection efficiency in HEK293 cells [1]: 0.3%
- Absolute mRNA transfection efficiency in HEK293 cells [2]: 0.2%

Compound: CCCCCCCCCCCCCNc1nc(NCCCCCCCCC)nc(NCCCN(C)C)n1 [Compound N9N13D6]
- Absolute DNA transfection efficiency in HEK293 cells [1]: 0.0%
- Absolute mRNA transfection efficiency in HEK293 cells [2]: 0.4%

Compound: CCCCCCCCCCCCCNc1nc(NCCCCCCCCC)nc(NCCN(CC)CC)n1 [Compound N9N13D7]
- Absolute DNA transfection efficiency in HEK293 cells [1]: 0.0%
- Absolute mRNA transfection efficiency in HEK293 cells [2]: 0.3%

Compound: CCCCCCCCCCCCCNc1nc(NCCCCCCCCC)nc(NCCCN2CCOCC2)n1 [Compound N9N13D8]
- Absolute DNA transfection efficiency in HEK293 cells [1]: 0.0%
- Absolute mRNA transfection efficiency in HEK293 cells [2]: 0.0%

Compound: CCCCCCCCCCCCCNc1nc(NCCCCCCCCC)nc(NCCCN2CCN(C)CC2)n1 [Compound N9N13D9]
- Absolute DNA transfection efficiency in HEK293 cells [1]: 0.0%
- Absolute mRNA transfection efficiency in HEK293 cells [2]: 2.5%

Compound: CCCCCCCCCCCCCNc1nc(NCCCCCCCCC)nc(NCC2CCN(C)CC2)n1 [Compound N9N13D10]
- Absolute DNA transfection efficiency in HEK293 cells [1]: 0.3%
- Absolute mRNA transfection efficiency in HEK293 cells [2]: 2.8%

Compound: CCCCCCCCCCCCCCCNc1nc(NCCCCCCCCC)nc(NCCN(C)C)n1 [Compound N9N15D1]
- Absolute DNA transfection efficiency in HEK293 cells [1]: 0.5%
- Absolute mRNA transfection efficiency in HEK293 cells [2]: 2.2%

Compound: CCCCCCCCCCCCCCCNc1nc(NCCCCCCCCC)nc(NCCN2CCOCC2)n1 [Compound N9N15D2]
- Absolute DNA transfection efficiency in HEK293 cells [1]: 0.0%
- Absolute mRNA transfection efficiency in HEK293 cells [2]: 0.2%

Compound: CCCCCCCCCCCCCCCNc1nc(NCCCCCCCCC)nc(NCCN2CCCC2)n1 [Compound N9N15D3]
- Absolute DNA transfection efficiency in HEK293 cells [1]: 0.5%
- Absolute mRNA transfection efficiency in HEK293 cells [2]: 4.7%

Compound: CCCCCCCCCCCCCCCNc1nc(NCCCCCCCCC)nc(NCCN2CCCCC2)n1 [Compound N9N15D4]
- Absolute DNA transfection efficiency in HEK293 cells [1]: 0.0%
- Absolute mRNA transfection efficiency in HEK293 cells [2]: 0.6%

Compound: CCCCCCCCCCCCCCCNc1nc(NCCCCCCCCC)nc(NCCN2CCN(C)CC2)n1 [Compound N9N15D5]
- Absolute DNA transfection efficiency in HEK293 cells [1]: 0.2%
- Absolute mRNA transfection efficiency in HEK293 cells [2]: 1.8%

Compound: CCCCCCCCCCCCCCCNc1nc(NCCCCCCCCC)nc(NCCCN(C)C)n1 [Compound N9N15D6]
- Absolute DNA transfection efficiency in HEK293 cells [1]: 0.0%
- Absolute mRNA transfection efficiency in HEK293 cells [2]: 1.7%

Compound: CCCCCCCCCCCCCCCNc1nc(NCCCCCCCCC)nc(NCCN(CC)CC)n1 [Compound N9N15D7]
- Absolute DNA transfection efficiency in HEK293 cells [1]: 0.0%
- Absolute mRNA transfection efficiency in HEK293 cells [2]: 0.8%

Compound: CCCCCCCCCCCCCCCNc1nc(NCCCCCCCCC)nc(NCCCN2CCOCC2)n1 [Compound N9N15D8]
- Absolute DNA transfection efficiency in HEK293 cells [1]: 0.2%
- Absolute mRNA transfection efficiency in HEK293 cells [2]: 1.4%

Compound: CCCCCCCCCCCCCCCNc1nc(NCCCCCCCCC)nc(NCCCN2CCN(C)CC2)n1 [Compound N9N15D9]
- Absolute DNA transfection efficiency in HEK293 cells [1]: 0.9%
- Absolute mRNA transfection efficiency in HEK293 cells [2]: 1.1%

Compound: CCCCCCCCCCCCCCCNc1nc(NCCCCCCCCC)nc(NCC2CCN(C)CC2)n1 [Compound N9N15D10]
- Absolute DNA transfection efficiency in HEK293 cells [1]: 0.0%
- Absolute mRNA transfection efficiency in HEK293 cells [2]: 1.7%

Compound: CCCCCCCCCCCCCCCCNc1nc(NCCCCCCCCC)nc(NCCN(C)C)n1 [Compound N9N16D1]
- Absolute DNA transfection efficiency in HEK293 cells [1]: 2.1%
- Absolute mRNA transfection efficiency in HEK293 cells [2]: 1.5%

Compound: CCCCCCCCCCCCCCCCNc1nc(NCCCCCCCCC)nc(NCCN2CCOCC2)n1 [Compound N9N16D2]
- Absolute DNA transfection efficiency in HEK293 cells [1]: 0.0%
- Absolute mRNA transfection efficiency in HEK293 cells [2]: 0.7%

Compound: CCCCCCCCCCCCCCCCNc1nc(NCCCCCCCCC)nc(NCCN2CCCC2)n1 [Compound N9N16D3]
- Absolute DNA transfection efficiency in HEK293 cells [1]: 2.2%
- Absolute mRNA transfection efficiency in HEK293 cells [2]: 4.3%

Compound: CCCCCCCCCCCCCCCCNc1nc(NCCCCCCCCC)nc(NCCN2CCCCC2)n1 [Compound N9N16D4]
- Absolute DNA transfection efficiency in HEK293 cells [1]: 0.8%
- Absolute mRNA transfection efficiency in HEK293 cells [2]: 4.5%

Compound: CCCCCCCCCCCCCCCCNc1nc(NCCCCCCCCC)nc(NCCN2CCN(C)CC2)n1 [Compound N9N16D5]
- Absolute DNA transfection efficiency in HEK293 cells [1]: 0.0%
- Absolute mRNA transfection efficiency in HEK293 cells [2]: 0.0%

Compound: CCCCCCCCCCCCCCCCNc1nc(NCCCCCCCCC)nc(NCCCN(C)C)n1 [Compound N9N16D6]
- Absolute DNA transfection efficiency in HEK293 cells [1]: 2.2%
- Absolute mRNA transfection efficiency in HEK293 cells [2]: 6.2%

Compound: CCCCCCCCCCCCCCCCNc1nc(NCCCCCCCCC)nc(NCCN(CC)CC)n1 [Compound N9N16D7]
- Absolute DNA transfection efficiency in HEK293 cells [1]: 0.0%
- Absolute mRNA transfection efficiency in HEK293 cells [2]: 1.1%

Compound: CCCCCCCCCCCCCCCCNc1nc(NCCCCCCCCC)nc(NCCCN2CCOCC2)n1 [Compound N9N16D8]
- Absolute DNA transfection efficiency in HEK293 cells [1]: 1.8%
- Absolute mRNA transfection efficiency in HEK293 cells [2]: 0.0%

Compound: CCCCCCCCCCCCCCCCNc1nc(NCCCCCCCCC)nc(NCCCN2CCN(C)CC2)n1 [Compound N9N16D9]
- Absolute DNA transfection efficiency in HEK293 cells [1]: 0.0%
- Absolute mRNA transfection efficiency in HEK293 cells [2]: 1.1%

Compound: CCCCCCCCCCCCCCCCNc1nc(NCCCCCCCCC)nc(NCC2CCN(C)CC2)n1 [Compound N9N16D10]
- Absolute DNA transfection efficiency in HEK293 cells [1]: 4.8%
- Absolute mRNA transfection efficiency in HEK293 cells [2]: 1.2%

Compound: CCCCCCCCCCCCCCCCCCNc1nc(NCCCCCCCCC)nc(NCCN(C)C)n1 [Compound N9N18D1]
- Absolute DNA transfection efficiency in HEK293 cells [1]: 4.0%
- Absolute mRNA transfection efficiency in HEK293 cells [2]: 5.1%

Compound: CCCCCCCCCCCCCCCCCCNc1nc(NCCCCCCCCC)nc(NCCN2CCOCC2)n1 [Compound N9N18D2]
- Absolute DNA transfection efficiency in HEK293 cells [1]: 3.6%
- Absolute mRNA transfection efficiency in HEK293 cells [2]: 25.3%

Compound: CCCCCCCCCCCCCCCCCCNc1nc(NCCCCCCCCC)nc(NCCN2CCCC2)n1 [Compound N9N18D3]
- Absolute DNA transfection efficiency in HEK293 cells [1]: 2.0%
- Absolute mRNA transfection efficiency in HEK293 cells [2]: 4.7%

Compound: CCCCCCCCCCCCCCCCCCNc1nc(NCCCCCCCCC)nc(NCCN2CCCCC2)n1 [Compound N9N18D4]
- Absolute DNA transfection efficiency in HEK293 cells [1]: 19.9%
- Absolute mRNA transfection efficiency in HEK293 cells [2]: 1.3%

Compound: CCCCCCCCCCCCCCCCCCNc1nc(NCCCCCCCCC)nc(NCCN2CCN(C)CC2)n1 [Compound N9N18D5]
- Absolute DNA transfection efficiency in HEK293 cells [1]: 0.0%
- Absolute mRNA transfection efficiency in HEK293 cells [2]: 0.9%

Compound: CCCCCCCCCCCCCCCCCCNc1nc(NCCCCCCCCC)nc(NCCCN(C)C)n1 [Compound N9N18D6]
- Absolute DNA transfection efficiency in HEK293 cells [1]: 2.2%
- Absolute mRNA transfection efficiency in HEK293 cells [2]: 2.5%

Compound: CCCCCCCCCCCCCCCCCCNc1nc(NCCCCCCCCC)nc(NCCN(CC)CC)n1 [Compound N9N18D7]
- Absolute DNA transfection efficiency in HEK293 cells [1]: 3.0%
- Absolute mRNA transfection efficiency in HEK293 cells [2]: 0.6%

Compound: CCCCCCCCCCCCCCCCCCNc1nc(NCCCCCCCCC)nc(NCCCN2CCOCC2)n1 [Compound N9N18D8]
- Absolute DNA transfection efficiency in HEK293 cells [1]: 1.4%
- Absolute mRNA transfection efficiency in HEK293 cells [2]: 0.3%
